# Source: patent US4444778A, “Method and composition for treating atherosclerosis” (priority 1982, dated 1984)
# “Also recorded” adds a separate entry of the source.
# What was measured:
# [1] = system: Smooth muscle cells (BASMC); test: Smooth muscle cell number, 96 h incubation with serotonin, PDGF or serotonin receptor blocker (Example 2, Table II); format: cell-based, bovine; settings: for effect on serotonin-induced increase in smooth muscle cell number / Cell Number/Plate: 96 h, 2.5% platelet-poor plasma; for effect on serotonin-induced increase in smooth muscle cell number: similar = as with cyproheptadine; for Cell Number/Plate: mean ± SEM, n = 6
# Description: Smooth muscle cells are grown from explants of bovine aortic media as described by Coughlin, et al (Platelet-Dependent Stimulation of Prostacyclin Synthesis by Platelet Derived Growth Factor, Nature, 288, pp. 600-602, 1980). Cells are seeded at 10^5 cells per 35 mm tissue culture well in Dulbecco's Modified Eagle Medium containing 10% calf serum and allowed to grow for 24 hours. The serum-containing medium is then removed and the cells are allowed to become quiescent in Medium 199 for 24 hours. The quiescent cultures are then incubated for 72 hours in Medium 199, with or without the mitogen to be tested. After the 72-hour incubation period, the cells are harvested for cell-number determination by Coulter Counter.
# Smooth muscle cells are seeded and made quiescent as described in Example 1. Cultures are then treated with serotonin, PDGF or cyproheptadine, a serotonin receptor blocker. The cultures are then incubated for 96 hours in Medium 199 containing 2.5% platelet-poor plasma and the treatment to be tested.
# [2] = system: Smooth muscle cells; test: 3H-thymidine incorporation into smooth muscle cells (Example 3, Table III); format: cell-based; settings: for effect on 3H-thymidine incorporation / response to serotonin: cyproheptadine 10^-7 M, similar = as with cyproheptadine; for CPM/Well (3H-thymidine incorporation): about 36 h, mean ± SEM, n = 4; for % Increase (3H-thymidine incorporation): versus control
# Description: In this experiment, stimulation of ^3 H-thymidine incorporation is used as an index of the ability of a compound to promote smooth muscle cell proliferation. Smooth muscle cells are seeded in 96 well Linbro racks (5 mm diameter/well) and allowed to grow for 72 hours. […] After approximately 36 hours, the cells are washed with saline, fixed with 10% TCA, washed with water, lysed with 1% SDS, and the lysate counted for ^3 H. This procedure allows the investigator to assess the amount of ^3 H-thymidine taken up by smooth muscle cells and incorporated into DNA.
# [3] = system: aortic smooth muscle cell proliferation after vascular injury; test: Specific activity of aortic smooth muscle cell DNA after balloon catheter vascular injury (Example 4, Table IV); format: in vivo, rat; parameters: Specific Activity for smooth muscle cell DNA, repeat test: concentration or dose not given beside the values; settings: for inhibition of injury-induced smooth muscle cell proliferation: after experimental vascular injury, similar = as with methiothepin 10 mg/kg i.p.; for dose dependent Specific Activity, methiothepin: vehicle = 100; for Specific Activity for smooth muscle cell DNA, repeat test: untreated 100, vehicle 92, standard error (%) in own column
# Description: Rat aortas are denuded of endothelium by passing a catheter with an inflated balloon at its tip down the length of the blood vessel. In animal models, this type of vascular injury has been shown by Goldberg, et al (Vascular Smooth Muscle Cell Kinetics: A New Assay For Studying Patterns of Cellular Proliferation In Vivo, Science, 205, 920-922, 1979), to stimulate formation of vascular lesions resembling those of human atherosclerosis 48 hours after injury. The rats are injected intravenously with ^3 H-thymidine, which is incorporated into the DNA of proliferating smooth muscle cells. After one hour, the specific activity of aortic smooth muscle cell DNA is determined and used as an index of smooth muscle cell proliferation in the injured vessel wall.
# [4] = system: vascular lesions of the aorta after de-endothelialization; test: Lesion area after aortic de-endothelialization (Example 5, Table V); format: in vivo, rat (male Sprague-Dawley); settings: 25 mg/kg by gavage
# Description: The use of serotonin antagonists in preventing or impeding arteriosclerotic lesion is indicated in vivo essentially in accordance with the de-endothelialization procedure of Tiell, et al (Influence of the Pituitary on Arterial Intima Proliferation in the Rat, Circulation Research, Vol. 42, No. 5, […], May 1978). Male Sprague-Dawley rats weighing 300-360 grams are fed a constant formula rodent lab chow and water ad libitum for two weeks prior to the start of the test. For two days before de-endothelialization and for the following 14 days until sacrifice, the animals receive either a placebo or 1 to 200 milligrams per kilogram per day of test compound. On the day of de-endothelialization, the drug is administered intravenously at one-tenth the oral dosage. De-endothelialization is carried out in the aortas of the anesthetized animals by balloon catheterization. The animals are weighed daily from the time of dosing and their behavior is recorded 3 to 4 hours following administration of the test compound. Fourteen days after catheterization, whole body perfusion fixation is carried out at 37° C. with 3% buffered glutaraldehyde in 0.15 M sodium cacodylate at pH 7.4 under 90-100 millimeters hydrostatic pressure. The aorta is removed, cut into 10 equal segments, and following two additional hours in the buffered glutaraldehyde, is treated with 1% osmium tetroxide, dehydrated, infiltrated with Squer's resin and cured. The segments are stained with Stevenal's blue and basic fuchsin, and the lesion areas is determined with a zeiss standard microscope and Videoplan computerized image analyzer. Please see examples for results.
# Male Sprague-Dawley rats weighing 300-360 grams are individually ear tagged, housed and allowed to acclimate for two weeks prior to the start of the test. A constant formula rodent lab chow from Ralston Purina and water are available to the animals ad libitum.
# For two days prior to de-endothelialization and for 14 days after, pizotyline at a dose of 25 milligrams per kilogram and placebo are administered by gavage in physiological saline to nine drug animals and 19 control animals. All animals are dosed between 8:00 and 10:00 A.M. daily. […] The animals are weighed daily at the time of dosing and behavior for each animal is recorded three to four hours after dosing. […]
# On the day of de-endothelialization, the animals are anesthetized by ether inhalation and catheterization is carried out by the following procedure. […] The catheter balloon tip is advanced cephaled to the aortic arch region as determined through external catheter demarcations and inflated to a pre-established maximum diameter with approximately 900 mm Hg air pressure. […]
# [5] = system: Smooth muscle cells (explants of bovine aortic media); test: Smooth muscle cell number, 72 h incubation with mitogen (Example 1, Table I); format: cell-based; settings: for Cell Number/Plate: 72 h, mean ± SEM, n = 6; for smooth muscle proliferation in cell culture: with and without 2% human platelet-poor plasma
# Description: After the 72-hour incubation period, the cells are harvested for cell-number determination by Coulter Counter.
# [6] = system: Smooth muscle cells (explants of bovine aortic media); settings: shown by others; cited from earlier work
molecule,measurement,setting,value
CN1CCC(=C2c3ccccc3C=Cc3ccccc32)CC1 [Cyproheptadine],effect on serotonin-induced increase in smooth muscle cell number,[1],attenuated
same,effect on 3H-thymidine incorporation / response to serotonin,[2]; PDGF 1 ng/ml,attenuates this response to serotonin
CSc1ccc2c(c1)C(N1CCN(C)CC1)Cc1ccccc1S2 (centres unmarked) [Methiothepin],inhibition of injury-induced smooth muscle cell proliferation,[3]; b.i.d.,marked inhibition; also recorded: remarkably effective
same,"dose dependent Specific Activity, methiothepin",[3]; methiothepin 0.3 mg/kg,51
same,"dose dependent Specific Activity, methiothepin",[3]; methiothepin 1.0 mg/kg,24
same,"dose dependent Specific Activity, methiothepin",[3]; methiothepin 3.0 mg/kg,23
same,Specific Activity of aortic smooth muscle cell DNA,"[3]; methiothepin 10 mg/kg i.p., b.i.d., control 91.6 ± 13.7, mean ± standard error (N = 6)",18.1 ± 5.3 CPM/ugDNA
same,"dose dependent Specific Activity, methiothepin",[3]; methiothepin 10.0 mg/kg,20
same,"Specific Activity for smooth muscle cell DNA, repeat test",[3],23 % of control
"CN1CCC(=C2c3ccccc3CCc3sccc32)CC1 [Pizotyline, 4-[1-methyl-4-piperidylidene]-9,10-dihydro-4H-benzo[4,5]cyclohepta[1,2-b]thiophene]",inhibition of injury-induced smooth muscle cell proliferation,[3]; b.i.d.,remarkably effective
same,"Mean Lesion Area, Abdominal","[4]; abdominal, 2 days before and 14 days after, normalized to 1,000 μm length, control 60,310.3","27,135.4 Square Microns"
same,"reduction of lesion formation, abdominal segments","[4]; abdominal, compared to control",55%
same,"Mean Lesion Area, Thoracic","[4]; thoracic, 2 days before and 14 days after, normalized to 1,000 μm length, control 50,283.1","11,834.8 Square Microns"
same,"mean reduction of lesion formation, thoracic segments","[4]; thoracic, compared to control lesion areas",77%
COC(=O)[C@H]1[C@H]2C[C@@H]3c4[nH]c5cc(OC)ccc5c4CCN3C[C@H]2C[C@@H](OC(=O)c2cc(OC)c(OC)c(OC)c2)[C@@H]1OC [Reserpine],"Specific Activity for smooth muscle cell DNA, repeat test",[3],68 % of control
NCCc1c[nH]c2ccc(O)cc12 [Serotonin],inhibition of injury-induced smooth muscle cell proliferation,[3]; b.i.d.,important in mediating smooth muscle cell proliferation after vascular injury
same,effect on serotonin-induced increase in smooth muscle cell number,[1],increases the number of smooth muscle cells
same,Cell Number/Plate,[1]; serotonin 10^-5 M,7.68 ± 0.12 ×10^-5
same,% Maximum,"[1]; serotonin 10^-5 M, relative to 10% Fetal Calf Serum = 100",33%
same,effect on 3H-thymidine incorporation / response to serotonin,[2]; PDGF 1 ng/ml,stimulates smooth muscle cell proliferation
same,CPM/Well (3H-thymidine incorporation),[2]; serotonin 10^-6 M,306.4 ± 3.1 CPM/Well (×10^-3)
same,% Increase (3H-thymidine incorporation),[2]; serotonin 10^-6 M,240%
same,CPM/Well (3H-thymidine incorporation),[2]; serotonin 10^-7 M,139.8 ± 11.9 CPM/Well (×10^-3)
same,% Increase (3H-thymidine incorporation),[2]; serotonin 10^-7 M,55%
same,Cell Number/Plate,"[5]; No Plasma, serotonin 10^-5 M",8.34 ± 0.43 ×10^-5
same,Cell Number/Plate,"[5]; Plasma (2% human platelet-poor plasma), serotonin 10^-5 M",12.19 ± 0.13 ×10^-5
same,smooth muscle proliferation in cell culture,[5],more smooth muscle cells are present; also recorded: potent promoter of smooth muscle proliferation
PDGF,Cell Number/Plate,"[1]; PDGF 0.5 ng/ml, alone or with serotonin / cyproheptadine as in label",8.11 ± 0.23 ×10^-5
same,% Maximum,"[1]; PDGF 0.5 ng/ml, alone or with serotonin / cyproheptadine as in label, relative to 10% Fetal Calf Serum",39%
same,Cell Number/Plate,"[1]; PDGF 4.0 ng/ml, alone or with serotonin / cyproheptadine as in label",10.66 ± 0.16 ×10^-5
same,% Maximum,"[1]; PDGF 4.0 ng/ml, alone or with serotonin / cyproheptadine as in label, relative to 10% Fetal Calf Serum",72%
same,mitogen for smooth muscle cells,[6],mitogen for smooth muscle cells
same,CPM/Well (3H-thymidine incorporation),[2]; PDGF 1 ng/ml,454.7 ± 28.3 CPM/Well (×10^-3)
same,% Increase (3H-thymidine incorporation),[2]; PDGF 1 ng/ml,405%
same,effect on 3H-thymidine incorporation / response to serotonin,[2]; PDGF 1 ng/ml,increase thymidine incorporation
same,Cell Number/Plate,"[5]; No Plasma, PDGF 8 ng/ml",9.65 ± 0.29 ×10^-5
same,Cell Number/Plate,"[5]; Plasma (2% human platelet-poor plasma), PDGF 8 ng/ml",14.24 ± 0.04 ×10^-5
same,smooth muscle proliferation in cell culture,[5],active
